Seven compounds from patent US20090099167A1, “Organic compounds” (Novartis Institutes for Biomedical Research, priority 2004, published 2009) can be followed below.

Where only a bound is given, the exact number is not on record here.

The experiment deals with T1, Tek (Homo sapiens, UniProt Q02763).
T1 construct: N-terminally GST-fused (pAcG1, Pharmingen) KDR, Flt-1, Flk-1, Tek and PDGFR-β kinase domains are obtained from ProQinase, Freiburg, Germany; host or cells: Sf9 or High Five (baculovirus)
T1 sequence (Q02763 824-1096 limits assumed, species assumed): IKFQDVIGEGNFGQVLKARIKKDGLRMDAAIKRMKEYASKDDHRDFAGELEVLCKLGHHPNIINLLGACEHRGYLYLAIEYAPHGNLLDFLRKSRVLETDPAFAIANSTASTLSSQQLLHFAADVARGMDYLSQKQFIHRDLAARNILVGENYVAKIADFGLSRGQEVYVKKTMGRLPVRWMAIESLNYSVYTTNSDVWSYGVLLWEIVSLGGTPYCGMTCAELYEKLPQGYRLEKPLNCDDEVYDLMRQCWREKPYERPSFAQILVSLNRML
Put plainly: Tek kinase inhibition, GST-fused kinase domain. The format is biochemical. The settings on record: Table 5; read-out: Tek, IC50 class. An excerpt: The inhibition of IGF-1R and Ins-R can be determined as follows: The baculovirus donor vector pfbgx3IGFIRcd is used to generate a recombinant baculovirus that expresses the amino acid region 950-1337 of the mature peptide cytoplasmic domain of the human IGF-IR. To generate the cDNA fragment encoding the amino acid region 919-1343 of the intra-cytoplasmic kinase domain of the human insulin receptor, pC5hInsR is used. The fragments of the human IGF-IR and Ins-R are cloned, expressed and small-scale purified as a factor Xa-cleavable glutathione-S-transferase (GST)-fusion protein using the Bac-to-Bac™ system (GIBCO BRL) of recombinant baculovirus generation. Virus containing media is collected from the transfected cell culture and used for infection to increase its titer. Virus containing media obtained after two rounds of infection is used for large-scale protein expression. Cell extracts are prepared and loaded onto a glutathione-Sepharose (Pharmacia) column. After washing, the GST-tagged proteins are then eluted with a glutathione-containing buffer. Purified protein is stored at −70° C. in elution buffer. Tyrosine protein kinase assays with purified GST-IGF-1R and GST-ins-R are carried in a final volume of 30 μl containing 20 mM Tris-HCl, pH 7.6, 10 mM MgCl2, 0.01 mM Na3VO4, 1% DMSO, 1 mM DTT, 3 μg/ml poly(Glu,Tyr) 4:1 and 10 μM ATP (γ-[^33P]-ATP 0.1 μCi). The assay is performed in 96-well plates at ambient temperature for 20 min and terminated by addition of 25 μl 0.05 M EDTA pH 7.0. An aliquot of 40 μl is spotted with a multichannel dispenser on Whatman P81 membranes mounted in a Millipore Microtiter filter manifold connected to a low vacuum source. After elimination of liquid, the membrane is transferred to a sequence of 4 washing baths containing 0.5% H3PO4 and one with EtOH (shaking incubation for 10 min each), dried, mounted onto a Hewlett Packard TopCount manifold added 10 μl Microscint® and counted. Compounds of formula (I) show up to 90% inhibition of Ins-R at 10,000 nM, preferably between 60-90% inhibition. The inhibition of Tek can be determined as follows: The procedure of the expression, purification and assay these kinases has been described. Fabbro et al., Pharmacol. Ther. 82(2-3) 293-301 (1999). In brief, the glutathione S-transferase (GST) gene from the pAcG1 vector (Pharmingen) is excised with EcoRV and EcoRI and inserted into the cloning site of the Fast-Bac baculoviral vector (GIBCO) creating a 5530 bp vector with N-terminal cloning sites derived from the pAcG1 fusion vector (FBG0). The C-terminal cloning site may be any cloning site (from the Fast-Bac vector) downstream of the N-terminal cloning site used. N-terminally GST-fused (pAcG1, Pharmingen) KDR, Flt-1, Flk-1, Tek and PDGFR-β kinase domains are obtained from ProQinase, Freiburg, Germany. Tek is recloned into the FBG1 vector by EcoRI excision and ligation into EcoRI digested FBG1 (FBG1-Tek). The coding sequences for the whole cytoplasmic domain of c-Kit (aa 544-976) and c-Fms (aa 538-972) are amplified by PCR from human uterus and from human bone marrow cDNA libraries (Clontech), respectively. The amplified DNA fragments are fused to GST by cloning them into FBG1 as BamHI-EcoRI insertions, to yield FBG1-c-Kit and FBG1-c-Fms. Tek is recloned into the FBG0 transfer vector by EcoRI excision and ligation into EcoRI digested FBG0 (FBG-Tie2/Tek). FGFR-1 and c-met kinase domains are obtained by PCR from human A431 cells. N-terminal primers contain an overhanging EcoRI site, while C-terminal primers contain a XhoI site to aid cloning into the transfer vectors. After digestion of both the PCR fragments and FBG0 the cleavage products are gel-purified and ligated together to form the kinase constructs (FBG-Met, FBG-FGFR-1).
Viruses for each of the kinases are made according to the protocol supplied by GIBCO. […]
Turning to `COc1ccc(-c2cnn3c(N)c(-c4ccc(F)c(F)c4)c(C)nc23)cc1OC` [Example 99, 6-(3,4-Difluoro-phenyl)-3-(3,4-dimethoxy-phenyl)-5-methyl-pyrazolo[1,5-a]pyrimidin-7-ylamine], the IC50 is more than 10 µM.
For the compound `Cc1nc2c(-c3cccc(N4CCN(CCO)CC4)c3)cnn2c(N)c1-c1ccc(F)c(Cl)c1` [Example 100, 2-(4-{3-[7-Amino-6-(3-chloro-4-fluoro-phenyl)-5-methyl-pyrazolo[1,5-a]pyrimidin-3-yl]-phenyl}-piperazin-1-yl)-ethanol], the IC50 was more than 10 µM.
With `Cc1nc2c(-c3cccc(N4CCN(CCO)CC4)c3)cnn2c(N)c1-c1ccc(F)c(F)c1` [Example 101, 2-(4-{3-[7-Amino-6-(3,4-difluoro-phenyl)-5-methyl-pyrazolo[1,5-a]pyrimidin-3-yl]-phenyl}-piperazin-1-yl)-ethanol], the IC50 was more than 10 µM.
For `Cc1nc2c(-c3cccc(N4CCC(N5CCCC5)CC4)c3)cnn2c(N)c1-c1cccc(Cl)c1` [Example 102, 6-(3-Chloro-phenyl)-5-methyl-3-[3-(4-pyrrolidin-1-yl-piperidin-1-yl)-phenyl]-pyrazolo[1,5-a]pyrimidin-7-ylamine], the IC50 was in the range of 1 to 10 µM.
Consider `Cc1nc2c(-c3cccc(N4CCC(N5CCCC5)CC4)c3)cnn2c(N)c1-c1ccc(F)cc1` [Example 103, 6-(4-Fluoro-phenyl)-5-methyl-3-[3-(4-pyrrolidin-1-yl-piperidin-1-yl)-phenyl]-pyrazolo[1,5-a]pyrimidin-7-ylamine], for which the IC50 is more than 10 µM.
As to `Cc1nc2c(-c3cccc(N4CC[N+](C)([O-])CC4)c3)cnn2c(N)c1-c1ccc(F)cc1` [Example 106, 6-(4-Fluoro-phenyl)-5-methyl-3-[3-(4-methyl-4-oxy-piperazin-1-yl)-phenyl]-pyrazolo[1,5-a]pyrimidin-7-ylamine], the IC50 was more than 10 µM.
For `Cc1nc2c(-c3cccc([N+]4([O-])CC[N+](C)([O-])CC4)c3)cnn2c(N)c1-c1ccc(F)cc1` (stereo not shown) [Example 107, 6-(4-Fluoro-phenyl)-5-methyl-3-[3-(4-methyl-1,4-dioxy-piperazin-1-yl)-phenyl]-pyrazolo[1,5-a]pyrimidin-7-ylamine], the IC50 is more than 10 µM.

What is called IC50 is the concentration at which inhibition is half-maximal.
